Test results as given in patent publication US9249153B2, “Pharmaceutical composition for treating aging-associated diseases, containing progerin expression inhibitor as active ingredient, and screening method of said progerin expression inhibitor” (PUSAN NATIONAL UNIVERSITY INDUSTRY-UNIVERSITY COOPERATION …, priority 2011, dated 2016).
Blank lines part the entries; values can stand above or below the compound they belong to.

Key:
progerin-Lamin A binding = target: T1, progerin-Lamin A binding (Homo sapiens, UniProt P02545); test: ELISA-based screening of LMN A-Prg binding inhibitors; settings: 0.1 mM final concentration
T1 sequence (P02545 515-614 isoform P02545-6 limits assumed): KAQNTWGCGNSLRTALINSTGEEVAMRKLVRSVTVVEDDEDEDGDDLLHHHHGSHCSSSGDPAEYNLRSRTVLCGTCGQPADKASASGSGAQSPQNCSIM
Experimental: To isolate a Lamin A-Prg binding inhibitor, ELISA analysis was carried out. GST-progerin-C or LMN A-His was fixed with 0.5% paraformaldehyde on 96-well plates. After drying and washing steps, lysates of HEK 293 cells transfected with GFP-Lamin A, GST-Lamin A-C, or GST-progerin-C were incubated for 1 hr with a 0.1 mM (final concentration) binding inhibitor of the present invention. The 96-well plates were washed with TBST, followed by reaction with an anti-GFP-Ab (1:10,000, 45 min), an anti-GST-Ab (1:10,000, 45 min) and an anti-mouse-IgG-HRP (1:50,000, 30 min). The plates were washed twice, and incubated with a TMB solution (Calbiochem) and then with a stop solution (1 N H2SO4). Absorbance was read on an ELISA reader.
If progerin-induced senescence is mediated by binding LMN A, an inhibitor against binding between LMN A and progerin would block the progerin-induced pathological features. […] In this regard, an ELISA-based screening system was established. Briefly, progerin immobilized in 96-well plates was incubated with candidates from a chemical library, together with GFP-LMN A. Subsequently, association between progerin and the GFP protein was monitored in the presence of the inhibitor candidates (FIG. 15A). From the chemical library, four effective different compounds (JH-0307809; JH1, JH-02051109; JH13, JH-03070708; JH4, and LG-02-089-23; LG-02) were selected (FIGS. 15B and 16B), and analyzed by the monitoring (FIG. 16A). […] Their cytotoxicity was evaluated by MTT assay (FIGS. 15B and 16C).

HGPS cells [1] = test: nuclear LMN A/C staining in two kinds of HGPS cells; type: cell-based, human; settings: for nuclear deformation: two kinds of HGPS cells, incubation for 24 hrs
p53 [2] = test: p53 expression and DNA damage response in RCC cell lines; type: cell-based, human; settings: C2 and Caki-2 cell lines
p53 [3] = test: p53 induction in human fibroblasts (normal, HGPS, WS); type: cell-based
Experimental: Whole cell lysates were prepared in RIPA buffer, and centrifuged at 14,000 rpm for 30 min. Twenty micrograms of cell extracts were separated by SDS-polyacrylamide gel electrophoresis and transferred onto a PVDF membrane. The membrane was incubated for 1 hr to overnight at 4° C. with an appropriated primary antibody, followed by reaction with a secondary antibody at room temperature for 1 hr. Peroxidase activity was detected by chemiluminescence with an ECL kit (Intron) as recommended by the manufacturer.
The molecular mechanism of the inhibitory activity of progerin against p53 was scrutinized and p53 responsibility to DNA damage was determined in human progeria cell lines (HGPS and WS). […] WS cells are known to be insensitive to DNA damage-induced p53 activation, and as previously observed, WS cells can also express progerin.
Keeping in mind the fact that p53 is tightly regulated by the MDM2 pathway, the engagement of progerin with MDM2-mediated p53 suppression was also tested by treatment of Nutlin-3, which is a blocker between MDM2 and p53 and induces p53 expression. […] Considering the results, the elevated expression of progerin would be involved in DNA damage-induced p53 activation and MDM2-mediaeted p53 suppression.

LMN A-progerin binding = LMN A-progerin binding (Homo sapiens, UniProt P02545); settings: in vitro binding assay
[4] = target: self association of LMN A (Homo sapiens, UniProt P02545)
self association of LMN A, sequence (P02545 whole entry): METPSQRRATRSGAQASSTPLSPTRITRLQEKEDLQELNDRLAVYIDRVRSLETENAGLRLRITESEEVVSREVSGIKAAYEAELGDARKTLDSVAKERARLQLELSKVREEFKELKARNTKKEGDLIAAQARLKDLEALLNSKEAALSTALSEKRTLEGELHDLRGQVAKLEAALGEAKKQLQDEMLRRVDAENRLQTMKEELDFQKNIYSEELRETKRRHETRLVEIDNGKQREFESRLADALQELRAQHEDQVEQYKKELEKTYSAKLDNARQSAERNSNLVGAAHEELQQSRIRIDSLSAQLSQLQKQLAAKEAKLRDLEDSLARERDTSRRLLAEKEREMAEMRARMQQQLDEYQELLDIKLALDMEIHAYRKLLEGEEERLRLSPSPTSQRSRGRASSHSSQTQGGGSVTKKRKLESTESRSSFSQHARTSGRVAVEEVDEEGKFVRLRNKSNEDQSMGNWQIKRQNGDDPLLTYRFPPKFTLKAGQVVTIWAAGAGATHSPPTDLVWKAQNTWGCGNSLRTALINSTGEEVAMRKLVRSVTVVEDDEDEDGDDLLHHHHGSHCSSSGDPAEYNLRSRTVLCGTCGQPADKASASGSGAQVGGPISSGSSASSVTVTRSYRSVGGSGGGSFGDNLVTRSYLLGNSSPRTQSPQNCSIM

[5] = system: association between LMN A and LMN B
HGPS cells [6] = test: cell counting, HGPS cells; type: cell-based, human
Experimental: (§1) For cell counting, cells were harvested from media, and stained for 10 min at room temperature with Trypan blue. Viable cells were counted using a hemocytometer.

normal fibroblasts = test: cell counting, normal fibroblasts; type: cell-based, human
Experimental: as §1

HGPS and normal cells = test: senescence-specific β-galactosidase staining (SA-β-Gal); type: cell-based, human
Experimental: For senescence-specific acidic-β-galactosidase activity staining, cells were washed once with PBS (pH 7.2) and fixed with PBS containing 0.5% glutaraldehyde. After being washed with PBS, the cells were stained overnight at 37° C. in an X-gal solution (Senescence β-Galactosidase Staining kit; Cell Signaling Technology).

RCC = test: nuclear irregularity of RCC (Example 2); type: cell-based, human
Experimental: Based on our observation that the nuclear irregularity of RCC is caused by progerin and improved by FTI, the JH compounds were also examined for effect on RCC. Like FTI, the JH compounds ameliorated nuclear irregularity (FIG. 25). […] They were tested in vivo.

Prg-LMN A binding = target: T2, Prg-LMN A binding (Homo sapiens, UniProt P02545); settings: GST-pull down, cell lysate
T2 sequence (P02545 515-614 isoform P02545-6 limits assumed): T1 sequence (P02545 515-614 isoform P02545-6 limits assumed)

[7] = system: transcriptional activity of p53; test: p21-luc luciferase assay; type: cell-based; settings: C2 cells, Adr treatment

Structure (SMILES): COc1ccc(C2=N[C@@H](c3ccc(Cl)cc3)[C@@H](c3ccc(Cl)cc3)N2C(=O)N2CCNC(=O)C2)c(OC(C)C)c1 [Nutlin-3]
p53 induction (p53 [2]): did not induce p53 obviously
p53 induction (p53 [3]; HGPS cells): partial response
p53 induction (p53 [3]; normal cells): induced p53 obviously

Structure (SMILES): COC(=O)[C@H](CCSC)NC(=O)c1ccc(NC[C@@H](N)CS)cc1-c1ccccc1 [FTI]
nuclear irregularity of RCC (RCC): improved
blocking of Prg-LMN A interaction (Prg-LMN A binding): block the interaction, but slightly

Structure (SMILES): CC1(C)Oc2ccc3oc(=O)ccc3c2C[C@@H]1OC(=O)C=Cc1ccc(O)c(O)c1 [LG-02, (6S)-(−)-3-(3,4-Dihydroxy-phenyl)-acrylic acid, 7,7-dimethyl-2-oxo-5,6-dihydro-7H-pyrano[3,2-f]chromen-6-yl-ester]
inhibition of association between immobilized progerin and GFP-LMN A (screening) (progerin-Lamin A binding): effective

Structure (SMILES): COc1cccc2c1C(=O)c1c(O)c3c(c(O)c1C2=O)C[C@@](O)(C(=O)CO)C[C@@H]3O[C@H]1C[C@H](N)[C@H](O)[C@H](C)O1 [Adr, adriamycin]
p21-luc expression / activation [7]: did not increase p21-luc expression
p53 induction (p53 [3]; HGPS cells): did not show the induction of p53
p53 induction (p53 [3]; Werner syndrome (WS) cells): did not show the induction of p53
p53 induction (p53 [3]; normal cells): obviously increased

More lines, main results first:

inhibition of association between immobilized progerin and GFP-LMN A (screening) (progerin-Lamin A binding): effective
Structure (SMILES): CC1(C)Oc2cc3oc(=O)ccc3cc2C[C@@H]1OC(=O)CCc1ccc(O)c(O)c1 [JH1, (7S)-(+)-3-(3,4-Dihydroxyphenyl)propionic acid, 8,8-dimethyl-2-oxo-6,7-dihydro-2H,8H-pyrano[3,2-g]chromen-7-yl-ester]
nuclear deformation (HGPS cells [1]): ameliorated the nuclear deformation

inhibition of association between immobilized progerin and GFP-LMN A (screening) (progerin-Lamin A binding): effective
inhibitory activity against LMN A-progerin binding (LMN A-progerin binding): block LMN A-progerin binding
disruption of self association of LMN A [4]: did not disrupt
Structure (SMILES): CC1(C)Oc2cc3oc(=O)ccc3cc2C[C@@H]1OC(=O)C=Cc1cccnc1 [JH4, (7S)-(+)-3-(3-Pyridyl)-acrylic acid, 8,8-dimethyl-2-oxo-6,7-dihydro-2H,8H-pyrano[3,2-g]chromen-7-yl-ester]
disruption of association between LMN A and LMN B [5]: did not disrupt
nuclear deformation, effect relative to the other compounds (HGPS cells [1]; HGPS cells (FIG. 17D)): more obvious effect than the other compounds
nuclear deformation (HGPS cells [1]): ameliorated the nuclear deformation
cell proliferation (HGPS cells [6]): promoted cell proliferation
cell proliferation (normal fibroblasts): induced cell proliferation
SA-β-gal (HGPS and normal cells): could suppress SA-β-gal
effect on LMN A mutants related with laminopathy (LMN A mutants): did not show a favorable effect

inhibition of association between immobilized progerin and GFP-LMN A (screening) (progerin-Lamin A binding): effective
inhibitory activity against LMN A-progerin binding (LMN A-progerin binding): block LMN A-progerin binding
Structure (SMILES): CC1(C)Oc2cc3oc(=O)ccc3cc2C[C@@H]1OC(=O)C=Cc1ccc(O)c(O)c1 [JH13, (7S)-(+)-3-(3,4-Dihydroxy-phenyl)-acrylic acid, 8,8-dimethyl-2-oxo-6,7-dihydro-2H,8H-pyrano[3,2-g]chromen-7-yl-ester]
nuclear deformation (HGPS cells [1]): ameliorated the nuclear deformation
blocking of Prg-LMN A interaction (Prg-LMN A binding): blocking ability of JH4 and JH13 was also demonstrated
